Laboratory results as given in patent publication US20220298145A1, “BRAF INHIBITORS AS PARADOX BREAKERS” (Hoffmann-La Roche Inc., priority 2019, published 2022).
Like-named read-outs stand apart in the source and are kept apart here.

Key:
BRAF (V600E) = BRAF (V600E) (Homo sapiens, UniProt P15056, V600E); assay: Kd for RAF kinases: BRAF (V600E); type: binding
BRAF = BRAF (Homo sapiens, UniProt P15056); assay: Kd for RAF kinases: BRAF; type: binding
CRAF = CRAF (Homo sapiens, UniProt P04049); assay: Kd for RAF kinases: CRAF; type: binding
[1] = system: ERK 1,2 phosphorylation in A375 cells expressing V600E mutated BRAF; assay: HTRF assay for P-ERK determination in A375 cells (BRAF inhibition); type: cell-based; conditions: Homo sapiens, A-375, 1 h, read-out: pERK IC50 A375
Description: (§1) DMEM no-phenol red medium supplemented with L-glutamine was purchased from (Thermo Fisher Scientific). Fetal bovine serum (FBS) was purchased from VWR. Advanced ERK phospho-T202/Y204 kit-10,000 tests was purchased from Cisbio cat #64AERPEH. A375 and HCT116 cells were originally obtained from ATCC and banked by the Roche repository.
A375 is a cellular cancer model expressing V600E mutated BRAF and HCT116 a cellular cancer model expressing WT BRAF. […] ERK 1,2 phosphorylation (terminal member of the phosphorylation cascade of the MAPK pathway) is hereafter reported as main readout for the activation status of the MAPK pathway. Prior to the assay, A375 and HCT116 cell lines are maintained in DMEM no-phenol red medium supplemented with 10% fetal bovine serum (FBS). […] Briefly, 8000 cells/well in 12 μl media/well are plated in the 384-well plate and left overnight in the incubator (at 37° C. with 5% CO2-humidified atmosphere), the following day the plate is treated in duplicate with test compounds, dabrafenib and PLX8394 (the latter two as controls) at the following final drug concentrations: 10 μM-3 μM-1 μM-0.3 μM-0.1 μM-0.03 μM-0.01 μM-0.003 μM-0.001 μM, all wells are subjected to DMSO normalization and drug incubation occurs for 1 hour. Then, 4 μl of a 4× lysis buffer supplied with the kit are added to the wells, the plate is then centrifuged for 30 second (300 rcf) and incubated on a plate shaker for 1 h at RT.
(§2) At the end of the incubation 4 μL/well of advanced P-ERK antibody solution (prepared according to manufacturer's instruction) followed by 4 μL/well of criptate P-ERK antibody solution (prepared according to manufacturer's instruction) (Cisbio cat #64AERPEH) are added to test wells.
(§3) In order to allow proper data normalization control wells non drug treated reported in the following table are always included in each plate (according to manufacturer's instruction):
(§4) The plate is then centrifuged at 300 rcf for 30 second, sealed to prevent evaporation and incubated overnight in the dark at room temperature.
(§5) The obtained fluorescence values are processed according to the formula Ratio=Signal (620 nm)/Signal (625 nm)*10000 then the average of the ratio on the blank is subtracted to all values.
Data are normalized in the case of A375 cells (BRAF inhibition) considering the average of the ratio (blank subtracted) derived by DMSO only treated cells as 100% and by considering the average of the ratio (blank subtracted) derived by 10 uM dabrafenib treated cells as 0%. Mean of the normalized points are fitted with sigmoidal curve and IC50 determined.

[2] = system: ERK 1,2 phosphorylation in HCT116 cells expressing WT BRAF; assay: HTRF assay for P-ERK determination in HCT116 cells (paradoxical BRAF activation); type: cell-based; conditions: for Emax: Homo sapiens, HCT-116, read-out: Percentage of maximum paradox inducing effect from dabrafenib; for EC50: read-out: P-ERK EC50 conc. at which the compound induces p-ERK activation of 50% of that induced by dabrafenib (Positive control paradox inducer) HCT-116, HCT-116 cells, 1 hour drug incubation, not applicable = activation does not reach 50% of dabrafenib maximum
Description: as §1, with “repository. 384-well microplates were purchased from Greiner Bio-One, 384-well, (With Lid, HiBase, Low volume cat 784-080).” for “repository.”
A375 is a cellular cancer model expressing V600E mutated BRAF and HCT116 a cellular cancer model expressing WT BRAF. First generation BRAF inhibitors such as e.g. dabrafenib induce a paradox effect on tumour cells in that they inhibit the growth of V600E mutated BRAF cells (such as e.g. A375), while they activate growth in WT BRAF cells (such as e.g. HCT 116). ERK 1,2 phosphorylation (terminal member of the phosphorylation cascade of the MAPK pathway) is hereafter reported as main readout for the activation status of the MAPK pathway. Prior to the assay, A375 and HCT116 cell lines are maintained in DMEM no-phenol red medium supplemented with 10% fetal bovine serum (FBS). Following compound treatment, P-ERK levels are determined by measuring FRET fluorescence signal induced by selective binding of 2 antibodies provided in the mentioned kit (Cisbio cat #64AERPEH) on ERK protein when phosphorylated at Thr202/Tyr204. Briefly, 8000 cells/well in 12 μl media/well are plated in the 384-well plate and left overnight in the incubator (at 37° C. with 5% CO2-humidified atmosphere), the following day the plate is treated in duplicate with test compounds, dabrafenib and PLX8394 (the latter two as controls) at the following final drug concentrations: 10 μM-3 μM-1 μM-0.3 μM-0.1 μM-0.03 μM-0.01 μM-0.003 μM-0.001 μM, all wells are subjected to DMSO normalization and drug incubation occurs for 1 hour. Then, 4 μl of a 4× lysis buffer supplied with the kit are added to the wells, the plate is then centrifuged for 30 second (300 rcf) and incubated on a plate shaker for 1 h at RT.
as §2, §3, §4
The plate is then analyzed and fluorescence emission value collected through a Pherastast FSX (BMG Labtech) apparatus at […].
as §5
Data are normalized in the case of HCT116 cells (BRAF activation) considering the average of the ratio (blank subtracted) derived by DMSO only treated cells as 0% and by considering the average of the ratio (blank subtracted) derived by dabrafenib treated cells at the concentration which provides the highest signal as 100%. Individual points are fitted with either sigmoidal or bell shape curves, and the percentage of activation compared to maximum dabrafenib-mediated activation is determined. The EC50 is the concentration at which activation equal to 50% of the maximum achieved by dabrafenib is obtained.
The Percentage of Maximum paradox inducing effect from dabrafenib is determined by evaluating the percentage at which the test compound induce its maximum P-ERK signal as percentage of the highest signal produced by dabrafenib within the dose range tested.

Chain of BRAF (P15056 whole entry): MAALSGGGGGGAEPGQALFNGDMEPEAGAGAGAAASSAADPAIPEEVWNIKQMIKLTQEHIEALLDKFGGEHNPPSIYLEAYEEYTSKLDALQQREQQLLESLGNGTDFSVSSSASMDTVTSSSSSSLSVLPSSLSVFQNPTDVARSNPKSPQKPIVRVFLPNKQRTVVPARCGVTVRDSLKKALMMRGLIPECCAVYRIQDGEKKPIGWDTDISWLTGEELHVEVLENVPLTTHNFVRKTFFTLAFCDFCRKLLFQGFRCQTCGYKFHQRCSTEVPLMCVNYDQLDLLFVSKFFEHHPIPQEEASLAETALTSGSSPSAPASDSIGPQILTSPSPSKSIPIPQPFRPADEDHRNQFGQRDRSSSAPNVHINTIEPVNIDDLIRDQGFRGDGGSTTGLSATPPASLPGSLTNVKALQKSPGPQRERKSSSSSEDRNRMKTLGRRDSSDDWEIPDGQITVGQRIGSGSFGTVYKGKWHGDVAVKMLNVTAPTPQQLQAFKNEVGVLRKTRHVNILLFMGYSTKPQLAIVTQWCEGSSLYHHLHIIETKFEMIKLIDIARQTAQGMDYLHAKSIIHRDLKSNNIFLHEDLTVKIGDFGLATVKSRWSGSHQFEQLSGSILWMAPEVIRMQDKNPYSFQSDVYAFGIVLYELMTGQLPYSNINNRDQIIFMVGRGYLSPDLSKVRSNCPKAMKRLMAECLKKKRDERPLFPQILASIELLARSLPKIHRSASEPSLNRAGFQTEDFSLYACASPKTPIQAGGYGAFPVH
Chain of BRAF (V600E) (P15056 whole entry V600E): as the sequence (P15056 whole entry) above, with V600E counted along it
Chain of CRAF (P04049 whole entry): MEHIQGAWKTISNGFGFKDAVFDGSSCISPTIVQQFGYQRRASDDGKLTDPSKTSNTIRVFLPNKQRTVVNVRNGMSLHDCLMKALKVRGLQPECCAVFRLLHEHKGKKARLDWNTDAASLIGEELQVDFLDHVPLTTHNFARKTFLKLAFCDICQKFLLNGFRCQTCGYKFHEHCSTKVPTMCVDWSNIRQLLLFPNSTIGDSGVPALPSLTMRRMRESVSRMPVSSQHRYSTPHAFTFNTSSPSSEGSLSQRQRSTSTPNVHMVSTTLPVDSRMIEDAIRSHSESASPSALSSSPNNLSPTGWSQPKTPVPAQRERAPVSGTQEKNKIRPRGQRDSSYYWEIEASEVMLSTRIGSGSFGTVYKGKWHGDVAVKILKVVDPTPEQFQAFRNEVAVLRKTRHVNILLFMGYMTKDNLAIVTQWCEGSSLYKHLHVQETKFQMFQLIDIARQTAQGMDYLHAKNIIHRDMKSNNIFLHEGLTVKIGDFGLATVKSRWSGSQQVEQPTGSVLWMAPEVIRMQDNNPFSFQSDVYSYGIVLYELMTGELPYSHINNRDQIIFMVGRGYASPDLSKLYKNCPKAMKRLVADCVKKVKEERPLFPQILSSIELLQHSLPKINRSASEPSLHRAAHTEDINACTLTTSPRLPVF

| SMILES | Kd (BRAF (V600E)) [nM] | Kd (BRAF) [nM] | Kd (CRAF) [nM] | IC50 [1] [nM] | Kd (BRAF (V600E); read-out: Kd BRAF (V600E)) [nM] | Kd (BRAF; read-out: Kd BRAF) [nM] | EC50 [2] [nM] | Emax [2] [%] |
| --- | --- | --- | --- | --- | --- | --- | --- | --- |
| CCC(C)S(=O)(=O)Nc1cccc(Oc2ccc3ncn(C)c(=O)c3c2)c1C#N (racemic) [Example 10, (RS)—N-[2-cyano-3-(3-methyl-4-oxo-quinazolin-6-yl)oxy-phenyl]butane-2-sulfonamide] | 14.4 | 3.9 | 6.8 | 8.8 | – | – | – | 21 |
| CCN(C)S(=O)(=O)Nc1ccc(F)c(Oc2ccc3ncn(C)c(=O)c3c2)c1C#N [Example 1, 6-[2-cyano-3-[[ethyl(methyl)sulfamoyl]amino]-6-fluoro-phenoxy]-3-methyl-4-oxo-quinazoline] | – | – | 6.3 | 5.5 | 3.4 | 1.6 | > 1000 | 56 |
| CCN(C)S(=O)(=O)Nc1ccc(Cl)c(Oc2ccc3ncn(C)c(=O)c3c2)c1C#N [Example 2, 6-[6-chloro-2-cyano-3-[[ethyl(methyl)sulfamoyl]amino]phenoxy]-3-methyl-4-oxo-quinazoline] | 36.8 | 30.4 | 5.4 | 28.6 | – | – | > 1000 | 69 |
| Cn1cnc2ccc(Oc3c(Cl)ccc(NS(=O)(=O)N4CC[C@@H](F)C4)c3C#N)cc2c1=O [Example 3, (3R)—N-[4-chloro-2-cyano-3-(3-methyl-4-oxo-quinazolin-6-yl)oxy-phenyl]-3-fluoro-pyrrolidine-1-sulfonamide] | 6.3 | 10 | 9.4 | 14.8 | – | – | > 1000 | 61 |
| CCN(C)S(=O)(=O)Nc1cccc(Oc2ccc3ncn(C)c(=O)c3c2)c1C#N [Example 5, 6-[2-cyano-3-[[ethyl(methyl)sulfamoyl]amino]phenoxy]-3-methyl-4-oxo-quinazoline] | 32.3 | 10.6 | 7.2 | 52.5 | – | – | > 1000 | 61 |
| Cn1cnc2ccc(Oc3cccc(NS(=O)(=O)N4CC[C@@H](F)C4)c3C#N)cc2c1=O [Example 7, (3R)—N-[2-cyano-3-(3-methyl-4-oxo-quinazolin-6-yl)oxy-phenyl]-3-fluoro-pyrrolidine-1-sulfonamide] | 4.5 | 8.9 | 8.9 | 26.2 | – | – | – | 32 |
| Cn1cnc2ccc(Oc3cccc(NS(=O)(=O)C4CCCC4)c3C#N)cc2c1=O [Example 8, N-[2-cyano-3-(3-methyl-4-oxo-quinazolin-6-yl)oxy-phenyl]cyclopentanesulfonamide] | 7 | 3.3 | 1.8 | 5.3 | – | – | 412 | 63 |
| CCN(C)S(=O)(=O)Nc1cccc(Nc2ccc3ncn(C)c(=O)c3c2)c1C#N [Example 11, 6-[2-cyano-3-[[ethyl(methyl)sulfamoyl]amino]anilino]-3-methyl-4-oxo-quinazoline] | – | – | 52.3 | 19.7 | 26.5 | 11.6 | > 1000 | 61 |
| Cn1cnc2ccc(Nc3cccc(NS(=O)(=O)N4CC[C@@H](F)C4)c3C#N)cc2c1=O [Example 12, (3R)—N-[2-cyano-3-[(3-methyl-4-oxo-quinazolin-6-yl)amino]phenyl]-3-fluoro-pyrrolidine-1-sulfonamide] | 7.5 | 2 | 9.8 | 9.2 | – | – | – | 49 |
| CCN(C)S(=O)(=O)Nc1ccc(Cl)c(Nc2ccc3ncn(C)c(=O)c3c2)c1C#N [Example 13, 6-[6-chloro-2-cyano-3-[[ethyl(methyl)sulfamoyl]amino]anilino]-3-methyl-4-oxo-quinazoline] | 10 | 4.3 | 6.8 | 14.8 | – | – | > 1000 | 67 |

These reach a lower Kd (CRAF). Values come first.

| Kd (BRAF (V600E)) [nM] | Kd (BRAF) [nM] | Kd (CRAF) [nM] | IC50 [1] [nM] | Kd (BRAF (V600E); read-out: Kd BRAF (V600E)) [nM] | Kd (BRAF; read-out: Kd BRAF) [nM] | EC50 [2] [nM] | SMILES | Emax [2] [%] |
| --- | --- | --- | --- | --- | --- | --- | --- | --- |
| 4.6 | 2.1 | 1.6 | 34.3 | – | – | 714 | Cn1cnc2ccc(Oc3c(Cl)ccc(NS(=O)(=O)N4CCCC4)c3C#N)cc2c1=O [Example 4, N-[4-chloro-2-cyano-3-(3-methyl-4-oxo-quinazolin-6-yl)oxy-phenyl]pyrrolidine-1-sulfonamide] | 65 |
| – | – | 1.5 | 13.7 | 0.7 | 1.4 | 204 | Cn1cnc2ccc(Nc3c(Cl)ccc(NS(=O)(=O)N4CCCC4)c3C#N)cc2c1=O [Example 14, N-[4-chloro-2-cyano-3-[(3-methyl-4-oxo-quinazolin-6-yl)amino]phenyl]pyrrolidine-1-sulfonamide] | 74 |
| 2.6 | 1.6 | 1.1 | 17.1 | – | – | 648 | Cn1cnc2ccc(Oc3cccc(NS(=O)(=O)N4CCCC4)c3C#N)cc2c1=O [Example 6, N-[2-cyano-3-(3-methyl-4-oxo-quinazolin-6-yl)oxy-phenyl]pyrrolidine-1-sulfonamide] | 59 |
| – | – | 0.8 | 13.9 | 4 | 2.4 | – | Cn1cnc2ccc(Oc3cccc(NS(=O)(=O)C4CCCCC4)c3C#N)cc2c1=O [Example 9, N-[2-cyano-3-(3-methyl-4-oxo-quinazolin-6-yl)oxy-phenyl]cyclohexanesulfonamide] | 44 |
| – | – | 0.8 | 1.6 | 0.9 | 0.4 | 172 | Cn1cnc2ccc(Oc3c(F)ccc(NS(=O)(=O)N4CCCC4)c3C#N)cc2c1=O [Example 15, N-[2-cyano-4-fluoro-3-(3-methyl-4-oxo-quinazolin-6-yl)oxy-phenyl]pyrrolidine-1-sulfonamide] | 63 |
